In paper PMC6026847, “Synthesis and Evaluation of the First Fluorescent Antagonists of the Human P2Y2 Receptor Based on AR-C118925” (Journal of Medicinal Chemistry, 2018):
Read-outs that look alike come from different tables or passages of the source.

Target: T1, hP2Y2R (Homo sapiens, UniProt P41231)
T1 construct: The 1321N1 cells expressing wild-type P2Y2R (P2Y2R-1321N1) were gifted by Dr. Elizabeth Rosethorne; expressed in transfected cells; host or cells: 1321N1 astrocytoma cells (P2Y2R-1321N1), gifted
T1 sequence (P41231 whole entry): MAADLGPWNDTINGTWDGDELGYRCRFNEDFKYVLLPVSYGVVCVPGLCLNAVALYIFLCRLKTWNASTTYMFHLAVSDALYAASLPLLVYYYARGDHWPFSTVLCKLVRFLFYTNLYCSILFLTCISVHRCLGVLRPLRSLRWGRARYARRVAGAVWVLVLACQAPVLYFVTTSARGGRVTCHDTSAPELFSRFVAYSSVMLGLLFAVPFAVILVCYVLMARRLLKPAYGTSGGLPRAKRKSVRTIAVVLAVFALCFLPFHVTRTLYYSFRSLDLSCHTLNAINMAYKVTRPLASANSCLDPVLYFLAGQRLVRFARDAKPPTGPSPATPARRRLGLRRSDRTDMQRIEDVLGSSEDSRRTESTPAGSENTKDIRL
Assay: Calcium-mobilization assay in P2Y2-1321N1 cells (antagonism of UTPγS)
Assay type: cell-based
Conditions: for Kb / hP2Y2 pKb: Gaddum equation; for hP2Y2R antagonist activity in words: calcium-mobilization assay

[1] = Table 2, shift of UTPγS concentration–response curve by a single antagonist concentration, mean ± SEM, read-out: hP2Y2 pKb (converted)
[2] = Table 1, shift of UTPγS concentration–response curve by a single antagonist concentration, mean ± SEM, read-out: hP2Y2 pKb (converted)
[3] = Table 2, shift of UTPγS concentration–response curve by a single antagonist concentration, mean ± SEM
[4] = Table 3, resolved enantiomers, shift of UTPγS curve, mean ± SEM, read-out: hP2Y2 pKb (converted)

hP2Y2R antagonist activity in words | Structure (SMILES) | hP2Y2 pKb [3] | other results
inactive | Cn1cc(C2c3ccc(Cl)cc3C=Cc3sc(NCCOc4ccccc4)nc32)c(=S)[nH]c1=O (centres unmarked) [Example 18, 5-(7-Chloro-2-((2-phenoxyethyl)amino)-4H-benzo[5,6]cyclohepta[1,2-d]thiazol-4-yl)-1-methyl-4-thioxo-3,4-dihydropyrimidin-2(1H)-one] | IA (3) (IA = inactive; i.e., less than a 50% inhibition of the response to 0.1 μM UTPγS in the presence of a 10 μM concentration of the compound (n = 3)) | –
complete loss of affinity | Cn1cc(C2c3ccc(Cl)cc3C=Cc3sc(-c4ccccc4)nc32)c(=S)[nH]c1=O (centres unmarked) [Example 19, 5-(7-Chloro-2-phenyl-4H-benzo[5,6]cyclohepta[1,2-d]thiazol-4-yl)-1-methyl-4-thioxo-3,4-dihydropyrimidin-2(1H)-one] | IA (3) (IA = inactive; i.e., less than a 50% inhibition of the response to 0.1 μM UTPγS in the presence of a 10 μM concentration of the compound (n = 3)) | –

The next lines start with the compound.

Structure (SMILES) | hP2Y2R antagonist activity in words | hP2Y2 pKb [3] | other results
COCCNc1nc2c(s1)C=Cc1cc(Cl)ccc1C2c1cn(C)c(=O)[nH]c1=S (racemic) [Example 14, 5-(7-Chloro-2-((2-methoxyethyl)amino)-4H-benzo[5,6]cyclohepta[1,2-d]thiazol-4-yl)-1-methyl-4-thioxo-3,4-dihydropyrimidin-2(1H)-one] | – | – | Kb [1]: 251 nM
Cc1ccc2c(c1)C=Cc1cc(C)ccc1C2c1cn(Cc2nc(C(=O)Nc3nnn[nH]3)cs2)c(=O)[nH]c1=S [Example 3, 2-((5-(2,8-Dimethyl-5H-dibenzo[a,d][7]annulen-5-yl)-2-oxo-4-thioxo-3,4-dihydropyrimidin-1(2H)-yl)methyl)-N-(1H-tetrazol-5-yl)thiazole-4-carboxamide] | – | – | Kb [2]: 77.6 nM
Cc1ccc2c(c1)C=Cc1cc(C)ccc1C2c1cn(C)c(=O)[nH]c1=S [Example 4, 5-(2,8-Dimethyl-5H-dibenzo[a,d][7]annulen-5-yl)-1-methyl-4-thioxo-3,4-dihydropyrimidin-2(1H)-one] | inactive | – | hP2Y2 pKb (Table 1, shift of UTPγS concentration–response curve by a single antagonist concentration, mean ± SEM): IA ^b (IA = inactive; i.e., less than a 50% inhibition of the response to 0.1 μM UTPγS in the presence of a 10 μM concentration of the compound)
Cc1nc2c(s1)C=Cc1cc(Cl)ccc1C2c1cn(Cc2nc(C(=O)Nc3nnn[nH]3)cs2)c(=O)[nH]c1=S (centres unmarked) [Example 5, 2-((5-(7-Chloro-2-methyl-4H-benzo[5,6]cyclohepta[1,2-d]thiazol-4-yl)-2-oxo-4-thioxo-3,4-dihydropyrimidin-1(2H)-yl)methyl)-N-(1H-tetrazol-5-yl)thiazole-4-carboxamide] | – | – | Kb [2]: 331 nM
Cc1nc2c(s1)C=Cc1cc(Cl)ccc1C2c1cn(C)c(=O)[nH]c1=S (centres unmarked) [Example 6, 5-(7-Chloro-2-methyl-4H-benzo[5,6]cyclohepta[1,2-d]thiazol-4-yl)-1-methyl-4-thioxo-3,4-dihydropyrimidin-2(1H)-one] | – | – | Kb [2]: 1020 nM
Cn1cc(C2c3ccc(Cl)cc3C=Cc3sc(N)nc32)c(=S)[nH]c1=O (centres unmarked) [Example 7, 5-(2-Amino-7-chloro-4H-benzo[5,6]cyclohepta[1,2-d]thiazol-4-yl)-1-methyl-4-thioxo-3,4-dihydropyrimidin-2(1H)-one] | – | – | Kb [1]: 275 nM
Cn1cc(C2c3ccc(Cl)cc3C=Cc3sc(Nc4ccccc4)nc32)c(=S)[nH]c1=O (centres unmarked) [Example 8, 5-(7-Chloro-2-(phenylamino)-4H-benzo[5,6]cyclohepta[1,2-d]thiazol-4-yl)-1-methyl-4-thioxo-3,4-dihydropyrimidin-2(1H)-one] | inactive | IA ^b (3) (IA = inactive; i.e., less than a 50% inhibition of the response to 0.1 μM UTPγS in the presence of a 10 μM concentration of the compound (n = 3)) | –
Cn1cc(C2c3ccc(Cl)cc3C=Cc3sc(NCc4ccccc4)nc32)c(=S)[nH]c1=O (centres unmarked) [Example 9, 5-(2-(Benzylamino)-7-chloro-4H-benzo[5,6]cyclohepta[1,2-d]thiazol-4-yl)-1-methyl-4-thioxo-3,4-dihydropyrimidin-2(1H)-one] | inactive | IA (3) (IA = inactive; i.e., less than a 50% inhibition of the response to 0.1 μM UTPγS in the presence of a 10 μM concentration of the compound (n = 3)) | –
Cn1cc(C2c3ccc(Cl)cc3C=Cc3sc(NCCc4ccccc4)nc32)c(=S)[nH]c1=O (centres unmarked) [Example 10, 5-(7-Chloro-2-(phenethylamino)-4H-benzo[5,6]cyclohepta[1,2-d]thiazol-4-yl)-1-methyl-4-thioxo-3,4-dihydropyrimidin-2(1H)-one] | inactive | IA (3) (IA = inactive; i.e., less than a 50% inhibition of the response to 0.1 μM UTPγS in the presence of a 10 μM concentration of the compound (n = 3)) | –
CN1CCN(c2nc3c(s2)C=Cc2cc(Cl)ccc2C3c2cn(C)c(=O)[nH]c2=S)CC1 (centres unmarked) [Example 11, 5-(7-Chloro-2-(4-methylpiperazin-1-yl)-4H-benzo[5,6]cyclohepta[1,2-d]thiazol-4-yl)-1-methyl-4-thioxo-3,4-dihydropyrimidin-2(1H)-one] | inactive | IA (3) (IA = inactive; i.e., less than a 50% inhibition of the response to 0.1 μM UTPγS in the presence of a 10 μM concentration of the compound (n = 3)) | –
Cn1cc(C2c3ccc(Cl)cc3C=Cc3sc(N4CCOCC4)nc32)c(=S)[nH]c1=O (centres unmarked) [Example 12, 5-(7-Chloro-2-morpholino-4H-benzo[5,6]cyclohepta[1,2-d]thiazol-4-yl)-1-methyl-4-thioxo-3,4-dihydropyrimidin-2(1H)-one] | inactive | IA (3) (IA = inactive; i.e., less than a 50% inhibition of the response to 0.1 μM UTPγS in the presence of a 10 μM concentration of the compound (n = 3)) | –
Cn1cc(C2c3ccc(Cl)cc3C=Cc3sc(N4CCCCC4)nc32)c(=S)[nH]c1=O (centres unmarked) [Example 13, 5-(7-Chloro-2-(piperidin-1-yl)-4H-benzo[5,6]cyclohepta[1,2-d]thiazol-4-yl)-1-methyl-4-thioxo-3,4-dihydropyrimidin-2(1H)-one] | inactive | IA (3) (IA = inactive; i.e., less than a 50% inhibition of the response to 0.1 μM UTPγS in the presence of a 10 μM concentration of the compound (n = 3)) | –
COCCCNc1nc2c(s1)C=Cc1cc(Cl)ccc1C2c1cn(C)c(=O)[nH]c1=S (centres unmarked) [Example 15, 5-(7-Chloro-2-((3-methoxypropyl)amino)-4H-benzo[5,6]cyclohepta[1,2-d]thiazol-4-yl)-1-methyl-4-thioxo-3,4-dihydropyrimidin-2(1H)-one] | – | – | Kb [1]: 275 nM
CCOCCNc1nc2c(s1)C=Cc1cc(Cl)ccc1C2c1cn(C)c(=O)[nH]c1=S (centres unmarked) [Example 16, 5-(7-Chloro-2-((2-ethoxyethyl)amino)-4H-benzo[5,6]cyclohepta[1,2-d]thiazol-4-yl)-1-methyl-4-thioxo-3,4-dihydropyrimidin-2(1H)-one] | – | – | Kb [1]: 186 nM
CC(C)OCCNc1nc2c(s1)C=Cc1cc(Cl)ccc1C2c1cn(C)c(=O)[nH]c1=S (centres unmarked) [Example 17, 5-(7-Chloro-2-((2-isopropoxyethyl)amino)-4H-benzo[5,6]cyclohepta[1,2-d]thiazol-4-yl)-1-methyl-4-thioxo-3,4-dihydropyrimidin-2(1H)-one] | – | – | Kb [1]: 324 nM
COCCNc1nc2c(s1)C=Cc1cc(Cl)ccc1C2c1cn(C)c(=O)[nH]c1=S (centres unmarked) [Example 20] | – | – | Kb [4]: 234 nM
COCCNc1nc2c(s1)C=Cc1cc(Cl)ccc1C2c1cn(C)c(=O)[nH]c1=S (centres unmarked) [Example 21] | – | – | Kb [4]: 1510 nM
CCOCCNc1nc2c(s1)C=Cc1cc(Cl)ccc1C2c1cn(C)c(=O)[nH]c1=S (centres unmarked) [Example 22] | – | – | hP2Y2 pKb (Table 3, resolved enantiomers, shift of UTPγS curve, mean ± SEM): IA ^c (3) (IA = inactive; i.e., less than a 50% inhibition of the response to 0.1 μM UTPγS in the presence of a 10 μM concentration of the compound (n = 3)); Kb (Table 7, shift of agonist dose–response curve by a single antagonist concentration, mean ± SEM, read-out: pKb Ca2+ mobilization (converted)): > 10000 nM
CCOCCNc1nc2c(s1)C=Cc1cc(Cl)ccc1C2c1cn(C)c(=O)[nH]c1=S (centres unmarked) [Example 23] | – | – | Kb [4]: 166 nM
COCCNc1nc2c(s1)C=Cc1cc(Cl)ccc1C2c1cn(Cc2nc(C(=O)Nc3nnn[nH]3)cs2)c(=O)[nH]c1=S (centres unmarked) [Example 24, 2-((5-(7-Chloro-2-((2-methoxyethyl)amino)-4H-benzo[5,6]cyclohepta[1,2-d]thiazol-4-yl)-2-oxo-4-thioxo-3,4-dihydropyrimidin-1(2H)-yl)methyl)-N-(1H-tetrazol-5-yl)thiazole-4-carboxamide] | – | – | Kd (quoted in text for nonfluorescent antagonists, mean ± SEM, read-out: hP2Y2R affinity pKd (converted)): 95.5 nM
